Measured values published in patent US7989422B2, “Antibacterial agents” (Alchemia Limited, priority 2005, dated 2011).

Experiments:
Format in all cases: cell-based
[1] = system: Staphylococcus aureus ATCC 25923; test: MIC against S. aureus, microbroth dilution in MH broth, without or with 5% horse serum; conditions: MIC class; S. aureus ATCC 25923
Experimental: (§1) Testing was conducted to determine the in vitro antimicrobial activity of a series of compounds synthesised by Alchemia Pty Ltd. The antimicrobial activity of each compound was determined at a single concentration (128 μg/mL) in Mueller Hinton (MH) broth against the ATCC type strain of Staphylococcus aureus. […] Compounds showing activity at concentrations up to 32-64 μg/mL in the presence/absence of serum were then tested for MIC activity against a standard set of 5 microorganisms comprising of ATCC type strains of MRSA, Enterococcus faecalis, Enterococcus faecium, VRE and Escherichia coli. CLSI (formerly NCCLS) microbroth dilution technique was used.
(§2) Each compound is initially dissolved in 100 μL of DMSO. Each solution is then diluted further in 0.9 mL of sterile MH broth to give a total volume of 1 mL (1000 μg/mL) This stock solution is then further diluted in MH broth to give a test solution with final concentration of 128 μg/mL using the following formula: 0.5 ml stock in 3.4 ml MH broth
(§3) Each test organism was subcultured from the −70° C. deep freezer onto horse blood agar. The plates were streaked to obtain isolated colonies and incubated at 35° C. in non-CO2 incubator for 24 hours. A second subculture was carried out onto horse blood agar. For each test organism, 1-2 colonies were selected from an 18-24 hour culture and inoculated into 2 ml sterile MH broth. The turbidity was adjusted to 0.5 McFarland standard.
(§4) A 1:10 dilution in MH broth (200 μL in 2 ml MH) of the 0.5 McFarland control was prepared. 5 μL of this diluted solution was used to inoculate the trays.
100 μL of sterile MH broth was added in columns 2-12. 200 μL of test solution was added in column 1. 100 μL was transferred in column 2 giving a ½ dilution. 100 μL from column 2 was then transferred to column 3 (¼ dilution). This dilution was carried on until column 12. A second tray containing the same test solution was inoculated in a similar manner using sterile MH broth with 5% heat inactivated horse serum. 5 μL of organism solution was then added to each well. The plates were then sealed and incubated at 35° C. in a non-CO2 incubator for 18-24 hours. The plates were examined for growth after the incubation time.
(§5) If the test organism is sensitive to the compound in the broth the growth will be inhibited. Similarly, if the organism grows on the antibiotic containing medium then it is resistant to this particular antibiotic.

[2] = system: Enterococcus faecium ATCC 35667; test: MIC against E. faecium, microbroth dilution; conditions: MIC class
Experimental: as §1, §2, §3, §4
(§6) The trays were prepared in a similar way as mentioned above and incubated at 35° C. in a non-CO2 incubator for 18-24 hours. The plates were examined for growth after the incubation time.
(§7) After 18-24 hour incubation 5 μL from each well was then inoculated onto horse blood agar and incubated for 18-24 hours at 35° C. in a non-CO2 incubator.
as §5

E. Faecium 51299 VanB = test: MIC against vancomycin-resistant enterococcus 51299 (VanB), microbroth dilution; conditions: MIC class; ATCC 51299 VanB
Experimental: as §1, §2, §3, §4, §6, §7, §5

[3] = system: Enterococcus faecalis ATCC 29212; test: MIC against E. faecalis, microbroth dilution; conditions: MIC class
Experimental: as §1, §2, §3, §4, §6, §7, §5

[4] = system: Staphylococcus aureus (MRSA) ATCC 33591; test: MIC against MRSA, microbroth dilution; conditions: MIC class
Experimental: as §1, §2, §3, §4, §6, §7, §5

SMILES | S. Aureus 25923 activity [1] | E. Faecium 35667 activity [2] | E. Faecium 51299 VanB activity (E. Faecium 51299 VanB) | E. Fecalis 29212 activity [3] | S. Aureus 33591 MRSA activity [4]
O=S(=O)(NC1COC(CO)C(n2c(Nc3ccc(-c4ccccc4)cc3)nc3cc(C(F)(F)F)ccc32)C1O)c1ccc(C(F)(F)F)cc1 (stereo not shown) [Compound 264] | ++ (“++”: MIC (μg/mL): MIC ≦ 16) |  |  |  | 
O=C(Nc1ccc(Cl)c(C(F)(F)F)c1)NC1COC(CO)C(n2c(Nc3ccc(C(F)(F)F)cc3)nc3cc(C(F)(F)F)cc(Cl)c32)C1O (stereo not shown) [Compound 253] | − (“−”: MIC (μg/mL): MIC > 64) | − (“−”: MIC (μg/mL): MIC > 64) | − (“−”: MIC (μg/mL): MIC > 64) | + (“+”: MIC (μg/mL): 64 ≧ MIC > 16) | − (“−”: MIC (μg/mL): MIC > 64)
CCCCCCCCCCCCC(N)C(=O)NC1C(CO)OCC(Nc2ccc(C(F)(F)F)cc2N)C1O (stereo not shown) [Compound 207] | + (“+”: MIC (μg/mL): 64 ≧ MIC > 16) | + (“+”: MIC (μg/mL): 64 ≧ MIC > 16) | + (“+”: MIC (μg/mL): 64 ≧ MIC > 16) | + (“+”: MIC (μg/mL): 64 ≧ MIC > 16) | + (“+”: MIC (μg/mL): 64 ≧ MIC > 16)
O=S(=O)(NC1COC(CO)C(n2c(NCc3ccccc3)nc3cc(C(F)(F)F)cc(Cl)c32)C1O)c1ccc(C(F)(F)F)cc1 (stereo not shown) [Compound 274] | ++ (“++”: MIC (μg/mL): MIC ≦ 16) |  |  |  | 
O=C(Nc1ccc(Cl)c(C(F)(F)F)c1)NC1COC(CO)C(n2c(NCc3ccc(-c4ccccc4)cc3)nc3cc(C(F)(F)F)cc(Cl)c32)C1O (stereo not shown) [Compound 259] | ++ (“++”: MIC (μg/mL): MIC ≦ 16) |  |  |  | 
O=S(=O)(NC1COC(CO)C(n2c(Nc3ccc(C(F)(F)F)cc3)nc3cc(C(F)(F)F)ccc32)C1O)c1ccc(C(F)(F)F)cc1 (stereo not shown) [Compound 263] | ++ (“++”: MIC (μg/mL): MIC ≦ 16) |  |  |  | 
O=C(Nc1ccc(Cl)c(C(F)(F)F)c1)NC1COC(CO)C(n2c(NCc3ccccc3)nc3cc(C(F)(F)F)ccc32)C1O (stereo not shown) [Compound 246] | ++ (“++”: MIC (μg/mL): MIC ≦ 16) | + (“+”: MIC (μg/mL): 64 ≧ MIC > 16) | + (“+”: MIC (μg/mL): 64 ≧ MIC > 16) | ++ (“++”: MIC (μg/mL): MIC ≦ 16) | ++ (“++”: MIC (μg/mL): MIC ≦ 16)
O=C(Nc1ccc(Cl)c(C(F)(F)F)c1)NC1COC(CO)C(n2c(NCc3ccc(Cl)cc3)nc3cc(C(F)(F)F)cc(Cl)c32)C1O (stereo not shown) [Compound 256] | − (“−”: MIC (μg/mL): MIC > 64) | − (“−”: MIC (μg/mL): MIC > 64) | ++ (“++”: MIC (μg/mL): MIC ≦ 16) | ++ (“++”: MIC (μg/mL): MIC ≦ 16) | − (“−”: MIC (μg/mL): MIC > 64)
O=C(Nc1ccc(Cl)c(C(F)(F)F)c1)NC1COC(CO)C(n2c(NCc3ccc(Cl)cc3)nc3cc(C(F)(F)F)ccc32)C1O (stereo not shown) [Compound 247] | ++ (“++”: MIC (μg/mL): MIC ≦ 16) | − (“−”: MIC (μg/mL): MIC > 64) | ++ (“++”: MIC (μg/mL): MIC ≦ 16) | ++ (“++”: MIC (μg/mL): MIC ≦ 16) | ++ (“++”: MIC (μg/mL): MIC ≦ 16)
Nc1nc2cc(C(F)(F)F)cc(Cl)c2n1C1COC(CO)C(NC(=O)C(N)Cc2ccc(-c3ccccc3)cc2)C1O (stereo not shown) [Compound 163] | + (“+”: MIC (μg/mL): 64 ≧ MIC > 16) | − (“−”: MIC (μg/mL): MIC > 64) | − (“−”: MIC (μg/mL): MIC > 64) | + (“+”: MIC (μg/mL): 64 ≧ MIC > 16) | + (“+”: MIC (μg/mL): 64 ≧ MIC > 16)
NC(CC(=O)Nc1nc2cc(C(F)(F)F)ccc2n1C1C(CO)OCC(NC(=O)Nc2ccc(Cl)c(C(F)(F)F)c2)C1O)c1ccc(-c2ccccc2)cc1 (stereo not shown) [Compound 238] | − (“−”: MIC (μg/mL): MIC > 64) | − (“−”: MIC (μg/mL): MIC > 64) | − (“−”: MIC (μg/mL): MIC > 64) | ++ (“++”: MIC (μg/mL): MIC ≦ 16) | ++ (“++”: MIC (μg/mL): MIC ≦ 16)
Nc1ccccc1OC1C(NC(=O)Nc2ccc(Cl)c(C(F)(F)F)c2)COC(CO)C1NC(=O)CC(N)c1ccc(-c2ccccc2)cc1 (stereo not shown) [Compound 72] | ++ (“++”: MIC (μg/mL): MIC ≦ 16) |  |  |  | 
O=C(NC1C(CO)OCC(NS(=O)(=O)c2ccc(Cl)c(C(F)(F)F)c2)C1O)c1ccc(-c2ccc(Cl)cc2)cc1 (stereo not shown) [Compound 12] | + (“+”: MIC (μg/mL): 64 ≧ MIC > 16) |  |  |  | 
O=S(=O)(NC1COC(CO)C(n2c(Nc3ccc(Cl)cc3)nc3cc(C(F)(F)F)cc(Cl)c32)C1O)c1ccc(C(F)(F)F)cc1 (stereo not shown) [Compound 271] | ++ (“++”: MIC (μg/mL): MIC ≦ 16) |  |  |  | 
CC(C)(C)c1ccc(CNc2nc3cc(C(F)(F)F)cc(Cl)c3n2C2C(CO)OCC(NS(=O)(=O)c3ccc(C(F)(F)F)cc3)C2O)cc1 (stereo not shown) [Compound 276] | + (“+”: MIC (μg/mL): 64 ≧ MIC > 16) |  |  |  | 
O=S(=O)(NC1COC(CO)C(n2c(NCc3ccc(Cl)cc3)nc3cc(C(F)(F)F)ccc32)C1O)c1ccc(C(F)(F)F)cc1 (stereo not shown) [Compound 266] | ++ (“++”: MIC (μg/mL): MIC ≦ 16) |  |  |  | 
O=S(=O)(NC1COC(CO)C(n2c(NCc3cccc(Oc4ccccc4)c3)nc3cc(C(F)(F)F)ccc32)C1O)c1ccc(C(F)(F)F)cc1 (stereo not shown) [Compound 268] | ++ (“++”: MIC (μg/mL): MIC ≦ 16) |  |  |  | 
O=S(=O)(NC1COC(CO)C(n2c(NCc3ccc4ccccc4c3)nc3cc(C(F)(F)F)cc(Cl)c32)C1O)c1ccc(C(F)(F)F)cc1 (stereo not shown) [Compound 279] | ++ (“++”: MIC (μg/mL): MIC ≦ 16) |  |  |  | 
O=S(=O)(NC1COC(CO)C(n2c(NCc3ccc(-c4ccccc4)cc3)nc3cc(C(F)(F)F)cc(Cl)c32)C1O)c1ccc(C(F)(F)F)cc1 (stereo not shown) [Compound 278] | ++ (“++”: MIC (μg/mL): MIC ≦ 16) |  |  |  | 
O=S(=O)(NC1COC(CO)C(n2c(NCc3ccc(Cl)cc3)nc3cc(C(F)(F)F)cc(Cl)c32)C1O)c1ccc(C(F)(F)F)cc1 (stereo not shown) [Compound 275] | ++ (“++”: MIC (μg/mL): MIC ≦ 16) |  |  |  | 
O=C(Nc1ccc(Cl)c(C(F)(F)F)c1)NC1COC(CO)C(n2c(NCc3cccc(Oc4ccccc4)c3)nc3cc(C(F)(F)F)cc(Cl)c32)C1O (stereo not shown) [Compound 258] | ++ (“++”: MIC (μg/mL): MIC ≦ 16) |  |  |  | 
O=C(Nc1ccc(Cl)c(C(F)(F)F)c1)NC1COC(CO)C(n2c(NCc3ccc4ccccc4c3)nc3cc(C(F)(F)F)cc(Cl)c32)C1O (stereo not shown) [Compound 261] | ++ (“++”: MIC (μg/mL): MIC ≦ 16) |  |  |  | 
CC(C)(C)c1ccc(CNc2nc3cc(C(F)(F)F)ccc3n2C2C(CO)OCC(NS(=O)(=O)c3ccc(C(F)(F)F)cc3)C2O)cc1 (stereo not shown) [Compound 267] | ++ (“++”: MIC (μg/mL): MIC ≦ 16) |  |  |  | 
O=S(=O)(NC1COC(CO)C(n2c(NCc3cccc(Oc4ccccc4)c3)nc3cc(C(F)(F)F)cc(Cl)c32)C1O)c1ccc(C(F)(F)F)cc1 (stereo not shown) [Compound 277] | + (“+”: MIC (μg/mL): 64 ≧ MIC > 16) |  |  |  | 
O=S(=O)(NC1COC(CO)C(n2c(Nc3ccc(Cl)cc3)nc3cc(C(F)(F)F)ccc32)C1O)c1ccc(C(F)(F)F)cc1 (stereo not shown) [Compound 262] | + (“+”: MIC (μg/mL): 64 ≧ MIC > 16) |  |  |  | 
O=S(=O)(NC1COC(CO)C(n2c(NCc3ccc4ccccc4c3)nc3cc(C(F)(F)F)ccc32)C1O)c1ccc(C(F)(F)F)cc1 (stereo not shown) [Compound 270] | ++ (“++”: MIC (μg/mL): MIC ≦ 16) |  |  |  | 
O=S(=O)(NC1COC(CO)C(n2c(NCc3ccc(-c4ccccc4)cc3)nc3cc(C(F)(F)F)ccc32)C1O)c1ccc(C(F)(F)F)cc1 (stereo not shown) [Compound 269] | ++ (“++”: MIC (μg/mL): MIC ≦ 16) |  |  |  | 
O=S(=O)(NC1COC(CO)C(n2c(Nc3ccc(C(F)(F)F)cc3)nc3cc(C(F)(F)F)cc(Cl)c32)C1O)c1ccc(C(F)(F)F)cc1 (stereo not shown) [Compound 272] | ++ (“++”: MIC (μg/mL): MIC ≦ 16) |  |  |  | 
O=S(=O)(NC1COC(CO)C(n2c(Nc3ccc(-c4ccccc4)cc3)nc3cc(C(F)(F)F)cc(Cl)c32)C1O)c1ccc(C(F)(F)F)cc1 (stereo not shown) [Compound 273] | ++ (“++”: MIC (μg/mL): MIC ≦ 16) |  |  |  | 
O=S(=O)(NC1COC(CO)C(n2c(NCc3ccccc3)nc3cc(C(F)(F)F)ccc32)C1O)c1ccc(C(F)(F)F)cc1 (stereo not shown) [Compound 265] | + (“+”: MIC (μg/mL): 64 ≧ MIC > 16) |  |  |  | 
